{"source": "patent US9555077B2", "about": "(UNIVERSITY OF MIYAZAKI, priority 2011, dated 2017)", "key": {"rats with hyperthermia": {"test_system": "rats with hyperthermia", "assay": "Suppressive effect of desacyl ghrelin against body temperature increase in rats with hyperthermia (rectal temperature, survival)", "type": "in vivo, rat", "method": "The rectal temperature was measured with a small animal body temperature controller ATC-101B made by Unique Medical Co., Ltd.\nThe life or death of each animal was determined in a comprehensive manner based on changes in the heart rate, respiratory rate, and body temperature, the amount of activity, the response to a physical stimulation, etc.\nThis experiment was performed in the same manner as in Example 1 unless otherwise stated.\nWhile maintaining the air temperature in the laboratory at 33 to 35° C., the humidity was increased from 30% (at the beginning of the experiment) to 75% (at the end of the experiment), and thus the laboratory conditions were gradually changed to high temperature and high humidity conditions. The rats were then carried into the laboratory. The rats were housed in a plastic cage in groups of three each. […] As a control, 200 μl/rat of physiological saline was intraperitoneally injected to the rats.\nAt the elapsed time of 110 minutes (80 minutes after the intraperitoneal injection), the rats were transferred from the laboratory to room temperature.\nAt the elapsed time of 130 minutes (100 minutes after the intraperitoneal injection), the life or death of each rat was determined by visual observation and palpation.\nThe body temperature was measured at the rectum in this Example."}, "[1]": {"test_system": "secretion of growth hormone (GH) from the pituitary gland", "details": "Broglio et al. 2004; cited from earlier work"}, "[2]": {"test_system": "rats with the normal body temperature", "assay": "Hypothermic effect of desacyl ghrelin in rats with normal body temperature (back/tail surface temperature by thermography)", "type": "in vivo, rat", "details": "male Wistar rats", "method": "Male Wistar rats (9 to 10 weeks old) were used as experimental animals.\nThe administration to the animals was performed by a single dose of intraperitoneal or intracerebroventricular injection. The dose was 3 nmol/rat for intraperitoneal administration and 0.5 nmol/rat for intracerebroventricular administration, regardless of the weight of the animals. The weight of the rats varied from 350.2 to 375.8 g.\nThe back or tail surface temperature of the animals was measured for 1 hour at intervals of 1 minute by thermography using FLIR SC620 (software name: FLIR Rsearch IR) made by FLIR Systems Inc. The body temperature values measured by thermography are shown as increase and decrease from the zero reference point obtained by measurement of the body temperature for 10 minutes prior to the intraperitoneal injection.\nThe laboratory was maintained at room temperature and the rats were carried thereinto. […] As another control, 200 μl/rat of physiological saline was intraperitoneally injected to the rats.\nAs a control, 0.5 nmol/rat of the rat-derived ghrelin was intracerebroventricularly administered the rats. As another control, 200 μl/rat of physiological saline was intracerebroventricularly administered to the rats.\nThe back and tail surface temperatures were measured by thermography in this Example."}}}
{"substance": "desacyl ghrelin", "values": [{"measurement": "survival (life or death of each rat)", "setting": "rats with hyperthermia; elapsed time 130 minutes (100 minutes after 10 nmol/rat i.p.), three rats per group, two of three control rats died", "value": "all the three rats in the desacyl ghrelin-administered group survived"}, {"measurement": "Body temperature of rats", "setting": "rats with hyperthermia; rectal, elapsed time 0 minutes at 33 to 35° C. (before the injection)", "value": "36.1 ± 0.1", "unit": "°C"}, {"measurement": "body temperature, lower than that of the physiological saline-administered group", "setting": "rats with hyperthermia; rectal, elapsed time 50 to 110 minutes (20 to 80 minutes after 10 nmol/rat i.p.), p<0.05 or 0.01", "value": "0.3 to 1.2", "unit": "°C"}, {"measurement": "Body temperature of rats", "setting": "rats with hyperthermia; rectal, elapsed time 10 minutes (before the injection)", "value": "37.0 ± 0.1", "unit": "°C"}, {"measurement": "Body temperature of rats", "setting": "rats with hyperthermia; rectal, elapsed time 20 minutes (before the injection)", "value": "38.2 ± 0.2", "unit": "°C"}, {"measurement": "Body temperature of rats", "setting": "rats with hyperthermia; rectal, elapsed time 30 minutes (time of intraperitoneal injection, 10 nmol/rat)", "value": "38.8 ± 0.2", "unit": "°C"}, {"measurement": "Body temperature of rats", "setting": "rats with hyperthermia; rectal, elapsed time 40 minutes (10 minutes after 10 nmol/rat i.p.)", "value": "39.2 ± 0.2", "unit": "°C"}, {"measurement": "Body temperature of rats", "setting": "rats with hyperthermia; rectal, elapsed time 50 minutes (20 minutes after 10 nmol/rat i.p.)", "value": "39.7 ± 0.0", "unit": "°C"}, {"measurement": "Body temperature of rats", "setting": "rats with hyperthermia; rectal, elapsed time 60 minutes (30 minutes after 10 nmol/rat i.p.)", "value": "39.9 ± 0.1", "unit": "°C"}, {"measurement": "Body temperature of rats", "setting": "rats with hyperthermia; rectal, elapsed time 70 minutes (40 minutes after 10 nmol/rat i.p.)", "value": "40.0 ± 0.3", "unit": "°C"}, {"measurement": "Body temperature of rats", "setting": "rats with hyperthermia; rectal, elapsed time 80 minutes (50 minutes after 10 nmol/rat i.p.)", "value": "40.2 ± 0.2", "unit": "°C"}, {"measurement": "Body temperature of rats", "setting": "rats with hyperthermia; rectal, elapsed time 90 minutes (60 minutes after 10 nmol/rat i.p.)", "value": "40.0 ± 0.2", "unit": "°C"}, {"measurement": "Body temperature of rats", "setting": "rats with hyperthermia; rectal, elapsed time 100 minutes (70 minutes after 10 nmol/rat i.p.)", "value": "40.1 ± 0.2", "unit": "°C"}, {"measurement": "Body temperature of rats", "setting": "rats with hyperthermia; rectal, elapsed time 110 minutes (80 minutes after 10 nmol/rat i.p.)", "value": "40.3 ± 0.1", "unit": "°C"}, {"measurement": "activity to increase the secretion of growth hormone (GH) from the pituitary gland", "setting": "[1]", "value": "almost no activity"}, {"measurement": "hypothermic effect in back surface temperature compared with ghrelin-administered group", "setting": "[2]; 0.5 nmol/rat intracerebroventricular, 10 to 30 minutes after injection (FIG. 3)", "value": "higher hypothermic effect"}, {"measurement": "heat dissipation effect compared with ghrelin", "setting": "[2]; 3 nmol/rat intraperitoneal, tail surface temperature (FIG. 2)", "value": "more excellent than that of ghrelin"}, {"measurement": "tail surface temperature", "setting": "[2]; 3 nmol/rat intraperitoneal, thermography (FIG. 2)", "value": "increased"}, {"measurement": "back surface temperature, lower than that of the physiological-saline administered group", "setting": "[2]; room temperature, 3 nmol/rat intraperitoneal, 5 to 60 minutes after injection, thermography (FIG. 1)", "value": "0.3 to 0.8", "unit": "°C"}]}
